Data as given in ChEMBL document CHEMBL2029246, “Identification of benzoxazole analogs as novel, S1P(3) sparing S1P(1) agonists” (Bioorg Med Chem Lett, 2012).
Calls of active or inactive are those of the source. The calls are words filed in the database; no cut-off is given here.

How the values were obtained:
[1] = biological target: Sphingosine 1-phosphate receptor 1 (Homo sapiens, UniProt P21453); assay: Agonist activity at SIP1 receptor by tango assay; assay type: functional
[2] = biological target: Sphingosine 1-phosphate receptor 3 (Homo sapiens, UniProt Q99500); assay: Agonist activity at human SIP3 receptor assessed as calcium mobilization by GeneBLAzer assay; assay type: functional
Sequence of Sphingosine 1-phosphate receptor 3 (Q99500 whole entry): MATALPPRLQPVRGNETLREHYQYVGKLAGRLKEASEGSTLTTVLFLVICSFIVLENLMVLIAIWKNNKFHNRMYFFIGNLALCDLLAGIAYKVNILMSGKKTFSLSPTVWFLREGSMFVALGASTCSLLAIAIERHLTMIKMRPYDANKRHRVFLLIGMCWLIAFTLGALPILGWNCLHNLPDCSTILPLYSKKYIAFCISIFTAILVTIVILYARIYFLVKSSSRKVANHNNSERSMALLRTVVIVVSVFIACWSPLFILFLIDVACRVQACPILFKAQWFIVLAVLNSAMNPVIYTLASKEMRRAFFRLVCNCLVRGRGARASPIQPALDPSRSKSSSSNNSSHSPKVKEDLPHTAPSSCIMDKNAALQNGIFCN

[3] = species: Mus musculus; assay: Lymphopenic activity in C57BL/6 mouse assessed as reduction in blood lymphocytes relative to control; assay type: functional; design: scale not given: the % may be the effect or the level left
[4] = species: Mus musculus; assay: Lymphopenic activity in C57BL/6 mouse assessed as reduction in blood lymphocytes after 4 to 8 weeks relative to control; assay type: functional, organism-based
[5] = species: Homo sapiens; assay: Selectivity ratio of EC50 for SIP1 receptor to EC50 for human SIP3 receptor
[6] = Volume of distribution in iv dosed mouse; assay type: ADME, organism-based; settings: in vivo
[7] = Half life in mouse at 2 mg/kg, po; assay type: ADME, organism-based; design: dose 2 mg/kg, route oral; settings: in vivo
[8] = Clearance in iv dosed mouse; assay type: ADME, organism-based; settings: in vivo
[9] = Ratio of drug level in brain to blood in iv dosed mouse after 4 hrs; assay type: ADME, organism-based; settings: read-out: BBR
[10] = Ratio of drug level in brain to blood in iv dosed mouse after 1 hr; assay type: ADME, organism-based; settings: read-out: BBR
[11] = test system: Mus musculus; assay: Lymphopenia activity in mouse assessed as reduction in blood lymphocytes at 1 mg/kg after 4 hrs relative to control; assay type: functional; design: scale not given: the % may be the effect or the level left
[12] = Cmax in mouse at 2 mg/kg, po; assay type: ADME, organism-based; design: dose 2 mg/kg, route oral; settings: in vivo
[13] = Oral bioavailability in mouse at 2 mg/kg; assay type: ADME, organism-based; settings: in vivo
[14] = AUC (0 to 24 hrs) in mouse at 2 mg/kg, po; assay type: ADME, organism-based; design: time < 24 hr, dose 2 mg/kg, route oral; settings: plasma
[15] = test system: Mus musculus; assay: Lymphopenic activity in mouse assessed as reduction in blood lymphocytes at 1 mg/kg after 24 hrs relative to control; assay type: functional, organism-based; design: dose 1 mg/kg

Sequence of Sphingosine 1-phosphate receptor 1 (P21453 whole entry): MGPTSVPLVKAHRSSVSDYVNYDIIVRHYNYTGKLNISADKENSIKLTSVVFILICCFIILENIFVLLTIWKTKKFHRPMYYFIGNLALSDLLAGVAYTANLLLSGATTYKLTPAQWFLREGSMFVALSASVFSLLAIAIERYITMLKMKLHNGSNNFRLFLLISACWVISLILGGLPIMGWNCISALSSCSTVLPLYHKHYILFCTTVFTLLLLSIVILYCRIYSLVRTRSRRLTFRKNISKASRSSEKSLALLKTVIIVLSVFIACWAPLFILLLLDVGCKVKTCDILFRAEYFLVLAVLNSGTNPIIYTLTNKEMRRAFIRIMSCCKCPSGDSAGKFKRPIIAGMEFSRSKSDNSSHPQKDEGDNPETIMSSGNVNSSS

Q: Which EC50 [1] does the source give for `O=C(O)C1CCN(CCCc2ccc3oc(-c4ccc(-c5ccccc5)c(C(F)(F)F)c4)nc3c2)CC1` here?
A: The EC50 was 0.794 nM.

Q: What about the EC50 [2] of the same compound?
A: Its EC50 is 501 nM.

Q: Which results are given for `O=C(O)CCN1CCC(c2ccc3oc(-c4ccc(-c5ccccc5)c(C(F)(F)F)c4)nc3c2)CC1`?
A: EC50 [1]: 0.0794 nM; EC50 [2]: 1000 nM

Q: Which EC50 [1] does the source give for `O=C(O)C1CN(CCc2ccc3oc(-c4ccc(-c5ccccc5)c(C(F)(F)F)c4)nc3c2)C1` here?
A: The EC50 was 0.398 nM.

Q: And the EC50 [2]?
A: Its EC50 is 794 nM.

Q: Which EC50 [1] does the source give for `CC(C)Oc1ncc(-c2nc3cc(CCCCCC(=O)O)cnc3o2)cc1C(F)(F)F` here?
A: The EC50 was 6.31 nM.

Q: What about the EC50 [2] of the same compound?
A: Its EC50 is greater than 10000 nM.

Q: Which results are given for `CC(C)Oc1ccc(-c2nc3cc(CCCCCC(=O)O)cnc3o2)cc1Cl`?
A: EC50 [1]: 158 nM; EC50 [2]: > 10000 nM

Q: What does the source list for `O=C(O)C1CN(CCCc2ccc3oc(-c4ccc(-c5ccccc5)c(C(F)(F)F)c4)nc3c2)C1`?
A: EC50 [1]: 0.1 nM; EC50 [2]: 126 nM

Q: Which EC50 [1] does the source give for `O=C(O)CCCCCc1ccc2[nH]c(-c3ccc(-c4ccccc4)c(C(F)(F)F)c3)cc2c1` here?
A: The EC50 was 126 nM.

Q: And the EC50 [2]?
A: Its EC50 is greater than 10000 nM.

Q: What does the source list for `CC(C)Oc1ccc(-c2nc3cc(CCC(=O)O)cnc3o2)cc1Cl`?
A: EC50 [1]: > 3160 nM; EC50 [2]: > 10000 nM

Q: Which EC50 [1] does the source give for `O=C(O)CCCCCc1cnc2sc(-c3ccc(-c4ccccc4)c(C(F)(F)F)c3)nc2c1` here?
A: The EC50 was 10 nM.

Q: And the EC50 [2]?
A: Its EC50 is greater than 10000 nM.

Q: For `CC(C)Oc1ccc(-c2nc3cc(CC(=O)O)cnc3o2)cc1Cl`, which EC50 [1] is on record?
A: The EC50 was greater than 3160 nM.

Q: What about the EC50 [2] of the same compound?
A: The EC50 was greater than 10000 nM.

Q: With `O=C(O)CCCCCc1cn2cc(-c3ccc(-c4ccccc4)c(C(F)(F)F)c3)nc2s1` as the compound, how does the EC50 [1] read?
A: The EC50 was 63.1 nM.

Q: What about the EC50 [2] of the same compound?
A: The EC50 was greater than 10000 nM.

Q: Which EC50 [1] does the source give for `CN(CCCc1ccc2oc(-c3ccc(-c4ccccc4)c(C(F)(F)F)c3)nc2c1)CC(=O)O` here?
A: The EC50 was 0.316 nM.

Q: And the EC50 [2]?
A: Its EC50 is 1000 nM.

Q: Which Activity [3] does the source give for `CCCCCCCCc1ccc(CCC(N)(CO)CO)cc1.Cl` [FINGOLIMOD HYDROCHLORIDE] here?
A: Its Activity is 20%.

Q: What about the Activity [4] of the same compound?
A: The Activity was “inactive”.

Q: With `O=C(O)CCNCCc1ccc2oc(-c3ccc(-c4ccccc4)c(C(F)(F)F)c3)nc2c1` as the compound, how does the EC50 [1] read?
A: The EC50 was 0.0316 nM.

Q: And the EC50 [2]?
A: Its EC50 is 200 nM.

Q: What does the source list for `O=C(O)CCCCCc1cnc2oc(-c3cc(-c4ccccc4)c(C(F)(F)F)s3)nc2c1`?
A: EC50 [1]: 398 nM; EC50 [2]: > 10000 nM

Q: With `CC(C)Oc1ccc(-c2nc(-c3cccc4c3ccn4CCC(=O)O)no2)cc1Cl` as the compound, how does the Ratio EC50 [5] read?
A: The Ratio EC50 was 1e+06.

Q: And the EC50 [1]?
A: The EC50 was 0.01 nM.

Q: Which Vd [6] does the source give for `O=C(O)C1CCN(c2ccc3oc(-c4ccc(-c5ccccc5)c(C(F)(F)F)c4)nc3c2)CC1` here?
A: The Vd was 1.48 L/kg.

Q: What about the half-life [7] of the same compound?
A: The half-life was 5.4 h.

Q: And the clearance [8]?
A: Its clearance is 3.68 mL/min/kg.

Q: What about the EC50 [1] of the same compound?
A: The EC50 was 0.631 nM.

Q: What about the Kp at 4 h [9] of the same compound?
A: The Kp at 4 h was 3.73.

Q: What about the Kp at 1 h [10] of the same compound?
A: Its Kp at 1 h is 1.45.

Q: What about the Activity [11] of the same compound?
A: The Activity was 37%.

Q: And the Cmax [12]?
A: Its Cmax is 1070 ng/mL.

Q: And the bioavailability [13]?
A: Its bioavailability is greater than 100%.

Q: What about the AUC(0-t) at 24 h [14] of the same compound?
A: The AUC(0-t) at 24 h was 10300 ng·h/mL.

Q: And the EC50 [2]?
A: Its EC50 is greater than 3160 nM.

Q: And the Activity [15]?
A: The Activity was “inactive”.

Q: With `CC(C)Oc1ccc(-c2nc3cc(CCCC(=O)O)cnc3o2)cc1Cl` as the compound, how does the EC50 [1] read?
A: Its EC50 is 1000 nM.

Q: What about the EC50 [2] of the same compound?
A: The EC50 was greater than 10000 nM.

Q: Which EC50 [1] does the source give for `O=C(O)CCCCCc1ccn2cc(-c3ccc(-c4ccccc4)c(C(F)(F)F)c3)nc2c1` here?
A: Its EC50 is 398 nM.

Q: What about the EC50 [2] of the same compound?
A: Its EC50 is greater than 10000 nM.

Q: Which EC50 [1] does the source give for `O=C(O)CCCCCc1cnc2oc(-c3ccc(-c4ccccc4)c(C(F)(F)F)c3)nc2c1` here?
A: Its EC50 is 0.316 nM.

Q: What about the EC50 [2] of the same compound?
A: Its EC50 is greater than 10000 nM.

Q: For `O=C(O)CCCCCc1ccn2nc(-c3ccc(-c4ccccc4)c(C(F)(F)F)c3)nc2c1`, which EC50 [1] is on record?
A: Its EC50 is 126 nM.

Q: And the EC50 [2]?
A: The EC50 was greater than 10000 nM.

Q: What does the source list for `O=C(O)CN1CCN(c2ccc3oc(-c4ccc(-c5ccccc5)c(C(F)(F)F)c4)nc3c2)CC1`?
A: EC50 [1]: 0.398 nM; EC50 [2]: 2000 nM

Q: For `CC(C)Oc1ccc(-c2nc3cc(C(=O)O)cnc3o2)cc1Cl`, which EC50 [1] is on record?
A: The EC50 was greater than 3160 nM.

Q: And the EC50 [2]?
A: Its EC50 is greater than 10000 nM.

Q: With `O=C(O)CNCCCc1ccc2oc(-c3ccc(-c4ccccc4)c(C(F)(F)F)c3)nc2c1` as the compound, how does the Ratio EC50 [5] read?
A: Its Ratio EC50 is greater than 1000.

Q: And the EC50 [1]?
A: The EC50 was 0.0316 nM.

Q: And the EC50 [2]?
A: The EC50 was 251 nM.

Q: What does the source list for `O=C(O)CN1CCC(c2ccc3oc(-c4ccc(-c5ccccc5)c(C(F)(F)F)c4)nc3c2)CC1`?
A: EC50 [1]: 1 nM; EC50 [2]: 2000 nM

Q: Which results are given for `CC(C)Oc1ccc(-c2nc3cc(CCCCCC(=O)O)cnc3o2)cc1C(F)(F)F`?
A: EC50 [1]: 20 nM; EC50 [2]: > 10000 nM

Q: With `CC(C)Oc1ncc(-c2nc3cc(CCCCCC(=O)O)cnc3o2)cc1Cl` as the compound, how does the EC50 [1] read?
A: The EC50 was 1000 nM.

Q: What about the EC50 [2] of the same compound?
A: Its EC50 is greater than 10000 nM.

Q: What does the source list for `O=C(O)C1CCN(CCc2ccc3oc(-c4ccc(-c5ccccc5)c(C(F)(F)F)c4)nc3c2)CC1`?
A: EC50 [1]: 0.158 nM; EC50 [2]: 501 nM

Q: Which results are given for `O=C(O)C1CN(c2ccc3oc(-c4ccc(-c5ccccc5)c(C(F)(F)F)c4)nc3c2)C1`?
A: EC50 [1]: 10 nM; EC50 [2]: 2000 nM

Q: With `CC(C)Oc1ccc(-c2nc(-c3cccc4c3c(Cl)cn4CCC(=O)O)no2)cc1Cl` as the compound, how does the EC50 [1] read?
A: Its EC50 is 0.0251 nM.

Q: What about the EC50 [2] of the same compound?
A: Its EC50 is greater than 10000 nM.

Q: Which EC50 [1] does the source give for `CC(C)Oc1ccc(-c2nc3cc(CCCCC(=O)O)cnc3o2)cc1Cl` here?
A: Its EC50 is 158 nM.

Q: What about the EC50 [2] of the same compound?
A: The EC50 was greater than 10000 nM.

Q: For `O=C(O)CC1CCN(c2ccc3oc(-c4ccc(-c5ccccc5)c(C(F)(F)F)c4)nc3c2)CC1`, which EC50 [1] is on record?
A: The EC50 was 1.26 nM.

Q: What about the EC50 [2] of the same compound?
A: Its EC50 is 1260 nM.

Q: With `O=C(O)C1CCCN(CCCc2ccc3oc(-c4ccc(-c5ccccc5)c(C(F)(F)F)c4)nc3c2)C1` (centres undefined) as the compound, how does the EC50 [1] read?
A: Its EC50 is 0.501 nM.

Q: And the EC50 [2]?
A: Its EC50 is 2000 nM.

Q: Which EC50 [1] does the source give for `O=C(O)CCCCCc1ccc2oc(-c3ccc(-c4ccccc4)c(C(F)(F)F)c3)nc2c1` here?
A: The EC50 was 0.398 nM.

Q: And the EC50 [2]?
A: Its EC50 is greater than 10000 nM.
